Reference: PMC9145885, “Synthesis of PP2A-Activating PF-543 Derivatives and Investigation of Their Inhibitory Effects on Pancreatic Cancer Cells” (Molecules, 2022)

What was measured:
MIA PaCa2 cells [1] = test: Cell viability / cytotoxic effect in MIA PaCa2 cells (EZ-CYTOX/MTT); type: cell-based; details: Homo sapiens, MIA PaCa-2, 2.5-40 µM, 24 h, relative IC50
Protocol: The human pancreatic ductal epithelial cell lines MIA Paca2, PANC-1 were maintained in DMEM media with 10% fetal bovine serum (FBS), 100 U/mL penicillin, and 100 µg/mL streptomycin at 37 °C in a humidified 5% CO2/95% air atmosphere. Cells were seeded in 96-well plates at a density of 3000 cells/100 μL/well and incubated for 24 h. The cells were then incubated in a culture medium containing synthetic compounds. Following 24 h of incubation, the cell viability was determined using an EZ-CYTOX kit (DaeilLab Service, Seoul, Korea) according to the manufacturer’s protocol (n = 12).
Supplementary Figure 1. Relative IC50 determination of Compound 5, Compound 10, PF-543, and FTY720. MIAPaCa2 cells were seeded in 96 well plates and treated with 2.5-40 µ M of compounds for 24h. Cell viability was assessed using MTT assay, and Relative IC50 was determined using Graph pad prism software. The result is representative of three independent experiments and data are presented as mean ± SD. *** p < 0.001 compared with non-treated […]
(1 picture or pasted object on this page, not shown here)

MIA PaCa2 cells [2] = test: Ceramide, S1P and sphingosine levels by ELISA in MIA PaCa2 cells; type: cell-based, human; details: 20 µM
Protocol: Ceramide, sphingosine, and S1P level were performed as protocols recommended by Mybiosource using the ceramide, sphingosine, and S1P ELISA kit (MyBiosource Inc., San Diego, CA, USA). Ceramide and sphingosine S1P measurements were tested with proteins that were centrifuged and collected by repeating freezing and thawing from three to five times after adding PBS to cells.

MIA PaCa2 cells [3] = test: Mitochondrial membrane potential, JC-10 staining; type: cell-based, human; details: 20 µM
Protocol: To measure the degree of MMP change of cancer cells, 20 μM JC-10 dye and assay buffer (Enzo Co., New York, NY, USA) were added to the cells cultured for 24 h and mixed until the cells were completely dissolved. Subsequently, the cells were incubated in the dark for 30 min at room temperature. The solutions were protected from light and analyzed by using flow cytometry.

MIA PaCa2 cells [4] = test: Western blot of apoptosis-related proteins; type: cell-based, human; details: 20 µM, 24 h
Protocol: Cell extracts from MIA Paca2 cells were determined by BCA Protein Assay Kit (Thermo Scientific) according to the manufacturer’s instructions. Separate 20–30 μg protein by electrophoresis using Tris-Glycine gel and transfer to PVDF membranes. After transferring and blocking, the membrane was incubated with the primary antibody in TBS-T buffer containing 5% skim milk overnight at 4 °C. Then, the membrane was washed three times with TBS-T, and the secondary antibody was incubated. Chemiluminescence detection was performed using a Western blot detection kit (Milipore). Bax, Bcl-2, Caspase-3, PARP, AKT, p-AKT, ERK, and p-ERK were used for Western blot analysis. Internal controls were detected using Actin antibody.

PP2A = PP2A immunoprecipitation phosphatase activity assay in MIA PaCa2 cells; type: cell-based, human; details: 20 µM
Protocol: PP2A activity assay was a PP2A immunoprecipitation phosphatase assay kit operated according to the manufacturer’s instruction. Briefly, a prepared protein aliquot was incubated with anti-PP2A subunit C-antibody and protein A agarose slurry at 4 °C for 2–3 h, and then phosphopeptide was added. Samples were recorded by Thermo Scientific Multiskan GO.

[5] = In vitro metabolic stability in dog liver microsomes; type: in vitro ADME; details: NADPH, 30 min
[6] = In vitro metabolic stability in rat liver microsomes; type: in vitro ADME; details: NADPH, 30 min
[7] = In vitro metabolic stability in mouse liver microsomes; type: in vitro ADME; details: NADPH, 30 min
[8] = In vitro metabolic stability in human liver microsomes; details: human liver microsomes 0.5 mg/mL, NADPH, 30 min
Protocol: Microsomal incubations were conducted in triplicate in 0.1 M potassium phosphate buffer (pH 7.4) in a clean 1.5 mL Eppendorf tube. […] The final incubation mixtures contained 0.5 mg/mL HLM, 0.1 M potassium phosphate buffer (pH 7.4), NADPH regenerating system (1 mM NADPH, 10 mM MgCl2). HLM was added, and the mixture was pre-incubated at 37 °C in a shaking incubator at approximately 350 rpm for 5 min under a Thermo mixer (Eppendorf., Hamburg, Germany). Reactions were initiated by the addition of 1 mM NADPH and were then quenched by adding 40 µL of ice-cold acetonitrile containing 10 µM chlorpropamide (CPP) as an internal standard at 0 and 30 min. The incubation mixtures were then centrifuged at 15,000 g for 5 min at 4 °C. A 2 µL aliquot of the supernatant was directly injected into the LC-MS/MS system. The LC-MS/MS system consisted of the Nexera XR HPLC system (Shimadzu Co., Kyoto, Japan) coupled to the TSQ Vantage triple quadrupole mass spectrometer equipped with Xcalibur version 1.1.1 (Thermo Fisher Scientific Inc., Waltham, MA, USA).

SPHK1 = molecular target: T1, SPHK1 (Homo sapiens, UniProt Q9NYA1); test: Sphingosine kinase 1 activity assay (Adapta screening system); type: biochemical; details: 20 µM compound
T1 construct: purchased Thermo Fisher Scientific
Protocol: (§1) SK 1/2 activity was measured using 20 μM PF-543 and compounds 1–10 using the AdaptaTM screening system (Thermo Fisher Scientific system). Sphingosine kinase 1 activity assay used 0.04–0.16 ng SPHK1, 50 μM sphingosine lipid substrate in 32.5 mM HEPES pH 7.5, 0.005% BRIJ 35, 5 mM MgCl2, 0.5 mM EGTA. Sphingosine kinase 2 activity assay detected 35–140 ng SPHK2, 50 μM sphingosine lipid substrate in 32.5 mM HEPES pH 7.5, 0.5 mM EGTA, and 1.5 mM MgCl2.

SPHK2 = molecular target: T2, SPHK2 (Homo sapiens, UniProt Q9NRA0); test: Sphingosine kinase 2 activity assay (Adapta screening system); type: biochemical; details: 20 µM compound
T2 construct: purchased Thermo Fisher Scientific
T2 sequence (Q9NRA0 1-654): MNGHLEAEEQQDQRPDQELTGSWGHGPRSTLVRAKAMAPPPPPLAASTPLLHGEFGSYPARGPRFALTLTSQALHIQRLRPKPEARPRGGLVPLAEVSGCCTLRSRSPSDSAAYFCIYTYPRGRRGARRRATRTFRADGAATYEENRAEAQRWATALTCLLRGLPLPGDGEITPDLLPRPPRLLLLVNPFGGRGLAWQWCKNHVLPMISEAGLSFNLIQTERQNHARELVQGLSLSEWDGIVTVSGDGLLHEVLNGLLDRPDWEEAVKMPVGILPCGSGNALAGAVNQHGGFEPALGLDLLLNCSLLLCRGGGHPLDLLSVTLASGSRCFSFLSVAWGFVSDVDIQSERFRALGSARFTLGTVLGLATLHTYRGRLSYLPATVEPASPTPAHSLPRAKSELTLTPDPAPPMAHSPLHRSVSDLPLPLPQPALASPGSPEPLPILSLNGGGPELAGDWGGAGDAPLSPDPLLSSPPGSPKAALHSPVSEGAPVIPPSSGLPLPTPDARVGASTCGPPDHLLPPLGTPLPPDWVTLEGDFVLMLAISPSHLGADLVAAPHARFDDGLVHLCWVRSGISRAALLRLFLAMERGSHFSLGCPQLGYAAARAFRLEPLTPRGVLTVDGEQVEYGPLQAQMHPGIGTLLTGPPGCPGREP
Protocol: as §1

MIA PaCa2 cells [9] = test: Annexin-V apoptosis assay (flow cytometry); type: cell-based, human; details: 20 µM
Protocol: Cell apoptosis assay was determined using annexin V- FITC and propidium iodide (PI) staining, as described in manufacturer instruction (BioBud, Gyeonggi-do, Korea). Briefly, the cells were resuspended in binding buffer and then incubated with annexin-V-FITC and propidium iodide at room temperature. After incubation, stained cells were analyzed by MACSQuant Analyzer 10 Flow Cytometer (Miltenyi Biotec, Bergisch Gladbach, Germany). The experiment was conducted three times independently (n = 6).

SK1 = tested on: SK1; parameters: method as in PMID 30889352; details: cited from earlier work
SK2 = tested on: SK2; parameters: method as in PMID 30889352; details: cited from earlier work

T1 sequence (Q9NYA1 whole entry): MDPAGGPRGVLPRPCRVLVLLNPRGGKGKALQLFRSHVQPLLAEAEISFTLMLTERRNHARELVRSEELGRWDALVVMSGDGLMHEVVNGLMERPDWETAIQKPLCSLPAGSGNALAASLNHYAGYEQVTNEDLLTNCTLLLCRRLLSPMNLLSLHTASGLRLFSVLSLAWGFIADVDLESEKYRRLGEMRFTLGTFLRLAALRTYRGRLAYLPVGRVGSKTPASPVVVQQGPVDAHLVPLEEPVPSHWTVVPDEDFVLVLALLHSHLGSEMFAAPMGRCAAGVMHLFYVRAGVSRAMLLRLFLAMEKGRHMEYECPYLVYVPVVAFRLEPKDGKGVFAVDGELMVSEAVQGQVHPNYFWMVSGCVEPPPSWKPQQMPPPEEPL

Compound	IC50 (MIA PaCa2 cells [1]) [µM]	S1P level (MIA PaCa2 cells [2])	mitochondrial membrane potential (ratio of red to green fluorescence, JC-10) (MIA PaCa2 cells [3])	expression of pro-apoptotic proteins (cleaved PARP, cleaved caspase-3) (MIA PaCa2 cells [4])	PP2A activity (PP2A)	In vitro stability, Dog (%) [5] [%]	In vitro stability, Rat (%) [6] [%]	In vitro stability, Mouse (%) [7] [%]	In vitro stability, Human (%) [8] [%]	SK1-inhibitory effect (SPHK1)	SK2-inhibitory effect (SPHK2)	ceramide level (MIA PaCa2 cells [2])	sphingosine level (MIA PaCa2 cells [2])	apoptotic effect (annexin-V) (MIA PaCa2 cells [9])	expression of anti-apoptotic protein Bcl-2 (MIA PaCa2 cells [4])	IC50 (SK1) [µM]	IC50 (SK2) [µM]
Cc1cc(Cn2cc(-c3ccccc3)nn2)cc(OCc2ccc(CN3CCC(CO)CC3)cc2)c1 [Compound 5, (1-(4-((3-Methyl-5-((4-phenyl-1H-1,2,3-triazol-1-yl)methyl)phenoxy)methyl)benzyl)piperidin-4-yl)methanol]	26.1	increased the S1P level	significantly reduced the mitochondrial membrane potential	insignificant compared to the compound 10 treatment group	little effect on PP2A	40.8	27.6	17.9	45.4	–	–	–	–	–	–	–	–
CCCCCCCCc1cn(Cc2cc(C)cc(OCc3ccc(CN4CCC(CO)CC4)cc3)c2)nn1 [Compound 10, (1-(4-((3-Methyl-5-((4-octyl-1H-1,2,3-triazol-1-yl)methyl)phenoxy)methyl)benzyl)piperidin-4-yl)methanol]	11.1	reduced the levels of S1P and sphingosine	significantly reduced the mitochondrial membrane potential	cleaved form of PARP and caspase-3 increased	activated PP2A	58.3	53.3	33.3	66.7	inhibited both SK1 and SK2	inhibited both SK1 and SK2	the ceramide level increased	reduced the levels of S1P and sphingosine	high apoptotic effect	Bcl-2 decreased	–	–
CCCCCCCCc1ccc(CCC(N)(CO)CO)cc1 [FTY720, reference compound]	9.57	–	–	–	–	–	–	–	–	–	–	–	–	–	–	–	–
Cc1cc(CS(=O)(=O)c2ccccc2)cc(OCc2ccc(CN3CCC[C@@H]3CO)cc2)c1 [PF-543]	–	reduce the level of S1P	significantly reduced the mitochondrial membrane potential	–	also activated PP2A	2.9	4.7	7.5	–	–	–	did not significantly change the levels of ceramide and sphingosine	did not significantly change the levels of ceramide and sphingosine	–	–	–	–
OC[C@H]1CCCN1Cc1ccc(COc2cccc(OCc3ccc(Cl)cc3)c2)cc1 [compound 55]	–	–	–	–	–	–	–	–	–	–	–	–	–	–	–	4.13	0.041
